In the supplement of paper PMC11451515:

Key:
Conditions in all cases: 48 h
NOMO1 [1] = test: AUC of viability dose-response curve (% viability x log10 dose units); higher = less sensitive
Procedure, shortened: (§1)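 Library compounds in DMSO were applied for 48 h at 37°C at 11 threefold doses (47 μM to 0.79 nM) to medium-adapted leukemia cells in 1536-well plates holding 500 or 1000 cells/well. Luminescence from CellTiter-Glo One was normalised plate by plate against DMSO and cell-free wells. Area under the curve came from trapezoidal integration of a log-logistic fit, after scaling curves that rose above full viability and discarding those that failed quality control. The fit had four parameters and used log10 doses.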

SEM cells [2] = test: as above
Procedure, shortened: as §1

NOMO1 [3] = test: cell viability relative to DMSO control; higher = less cytotoxic
Procedure, shortened: (§2)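 Three leukemia lines were tested: NOMO1 and SEM at 500 cells/well and P12-Ichikawa at 1000 cells/well. Each was adapted for at least four passages in each medium and seeded in 5 μl in 1536-well plates, and library compounds in DMSO were pin-dosed from 47 μM to 0.79 nM in 11 threefold steps. After 48 h at 37°C, CellTiter-Glo One luminescence was read. Viability is a percentage relative to DMSO wells on each plate, with cell-free wells as background.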

P12-Ichikawa [4] = test: as above
Procedure, shortened: as §2

SEM cells [5] = test: as above
Procedure, shortened: as §2

P12-Ichikawa [6] = test: AUC of viability dose-response curve (% viability x log10 dose units); higher = less sensitive
Procedure, shortened: as §1

Cc1cccc(-c2n[nH]cc2-c2ccc3ncccc3n2)n1
AUC of viability dose-response curve
Conditions | HPLM + 10% dialyzed FBS | RPMI 5 mM glucose + 10% FBS | RPMI 5 mM glucose + 10% dialyzed FBS
NOMO1 [1] | 447 | 458 | 430
SEM cells [2] | 459 | 449 | 451

CCC(=O)O[C@@]1(CC[C@H]2[C@@H]3CCC/4=C/C(=O)CC[C@]4(C)[C@H]3CC[C@]12C)C(=O)CO
cell viability [%]
Conditions | NOMO1 [3] | P12-Ichikawa [4] | SEM cells [5]
HPLM + 10% dialyzed FBS, 0.000781 µM | 75.8 | 99.2 | 95.3
HPLM + 10% dialyzed FBS, 0.00234 µM | 115 | 107 | 100
HPLM + 10% dialyzed FBS, 0.00702 µM | 103 | 104 | 101
HPLM + 10% dialyzed FBS, 0.0211 µM | 111 | 115 | 110
HPLM + 10% dialyzed FBS, 0.0632 µM | 119 | 110 | 109
HPLM + 10% dialyzed FBS, 0.19 µM | 128 | 116 | 98.8
HPLM + 10% dialyzed FBS, 0.569 µM | 106 | 125 | 86.7
HPLM + 10% dialyzed FBS, 1.71 µM | 140 | 107 | 57.4
HPLM + 10% dialyzed FBS, 5.12 µM | 108 | 98.9 | 46.1
HPLM + 10% dialyzed FBS, 15.4 µM | 85.4 | 83.7 | 27.3
HPLM + 10% dialyzed FBS, 46.1 µM | 78.7 | 83.1 | 23.7
RPMI 5 mM glucose + 10% FBS, 0.000781 µM | 109 | 91.6 | 63.3
RPMI 5 mM glucose + 10% FBS, 0.00234 µM | 112 | 122 | 83.6
RPMI 5 mM glucose + 10% FBS, 0.00702 µM | 106 | 109 | 86
RPMI 5 mM glucose + 10% FBS, 0.0211 µM | 111 | 113 | 84
RPMI 5 mM glucose + 10% FBS, 0.0632 µM | 107 | 112 | 84.8
RPMI 5 mM glucose + 10% FBS, 0.19 µM | 118 | 118 | 76.1
RPMI 5 mM glucose + 10% FBS, 0.569 µM | 115 | 109 | 51
RPMI 5 mM glucose + 10% FBS, 1.71 µM | 104 | 109 | 35.3
RPMI 5 mM glucose + 10% FBS, 5.12 µM | 104 | 106 | 24.3
RPMI 5 mM glucose + 10% FBS, 15.4 µM | 108 | 78.9 | 14.1
RPMI 5 mM glucose + 10% FBS, 46.1 µM | 103 | 69.1 | 12.7
RPMI 5 mM glucose + 10% dialyzed FBS, 0.000781 µM | 107 | 102 | 95.1
RPMI 5 mM glucose + 10% dialyzed FBS, 0.00234 µM | 103 | 103 | 103
RPMI 5 mM glucose + 10% dialyzed FBS, 0.00702 µM | 102 | 108 | 99.9
RPMI 5 mM glucose + 10% dialyzed FBS, 0.0211 µM | 119 | 109 | 88.5
RPMI 5 mM glucose + 10% dialyzed FBS, 0.0632 µM | 124 | 98.6 | 98
RPMI 5 mM glucose + 10% dialyzed FBS, 0.19 µM | 122 | 117 | 91.7
RPMI 5 mM glucose + 10% dialyzed FBS, 0.569 µM | 124 | 116 | 79.7
RPMI 5 mM glucose + 10% dialyzed FBS, 1.71 µM | 129 | 106 | 47.2
RPMI 5 mM glucose + 10% dialyzed FBS, 5.12 µM | 128 | 110 | 27.6
RPMI 5 mM glucose + 10% dialyzed FBS, 15.4 µM | 86.1 | 79.9 | 19.5
RPMI 5 mM glucose + 10% dialyzed FBS, 46.1 µM | 83.3 | 63 | 13.8

AUC of viability dose-response curve
Conditions | HPLM + 10% dialyzed FBS | RPMI 5 mM glucose + 10% FBS | RPMI 5 mM glucose + 10% dialyzed FBS
NOMO1 [1] | 457 | 467 | 458
P12-Ichikawa [6] | 454 | 452 | 455

C[C@H](c1ccc(F)cc1CCCC(=O)O)N(c1cc(F)ccc1F)[S+](=O)([O-])c1ccc(Cl)cc1
AUC of viability dose-response curve
Conditions | NOMO1 [1] | P12-Ichikawa [6] | SEM cells [2]
HPLM + 10% dialyzed FBS | 452 | 454 | 462
RPMI 5 mM glucose + 10% FBS | 455 | 449 | 465
RPMI 5 mM glucose + 10% dialyzed FBS | 450 | 447 | 461

COC1=CC=C(C=C1)C/2=C(OC3O[C@@H](C)[C@H](O)[C@@H](O)[C@H]3O)/C(=O)C4=C(O2)C(=C(OC5O[C@H](CO)[C@@H](O)[C@H](O)[C@H]5O)C=C4O)CC=C(C)C (stereo partly drawn)
SEM cells [5], RPMI 5 mM glucose + 10% dialyzed FBS
Conditions | cell viability [%]
0.000781 µM | 127
0.00234 µM | 123
0.00702 µM | 117
0.0211 µM | 118
0.0632 µM | 126
0.19 µM | 129
0.569 µM | 124
1.71 µM | 114
5.12 µM | 115
15.4 µM | 80.7
46.1 µM | 14.7

AUC of viability dose-response curve
Conditions | NOMO1 [1] | P12-Ichikawa [6] | SEM cells [2]
HPLM + 10% dialyzed FBS | 445 | 456 | 439
RPMI 5 mM glucose + 10% FBS | 457 | 459 | 420
RPMI 5 mM glucose + 10% dialyzed FBS | 462 | 469 | 435

Nc1ncnc2c1ncn2[C@@H]1O[C@H](CO)[C@@H](O)[C@H]1O
AUC of viability dose-response curve
Conditions | HPLM + 10% dialyzed FBS | RPMI 5 mM glucose + 10% FBS | RPMI 5 mM glucose + 10% dialyzed FBS
NOMO1 [1] | 388 | 402 | 397
SEM cells [2] | 462 | 454 | 463

Cc1cnc(Nc2cccc(CN3CCOCC3)c2)nc1Nc1cccc([S+](=O)([O-])NC(C)(C)C)c1
cell viability [%]
Conditions | NOMO1 [3] | P12-Ichikawa [4] | SEM cells [5]
HPLM + 10% dialyzed FBS, 0.000781 µM | 87.9 | 90 | 77.4
HPLM + 10% dialyzed FBS, 0.00234 µM | 99.6 | 91.9 | 80.3
HPLM + 10% dialyzed FBS, 0.00702 µM | 100 | 90.5 | 97.3
HPLM + 10% dialyzed FBS, 0.0211 µM | 96.4 | 96.2 | 91.7
HPLM + 10% dialyzed FBS, 0.0632 µM | 107 | 91.9 | 74.4
HPLM + 10% dialyzed FBS, 0.19 µM | 108 | 89.3 | 72.1
HPLM + 10% dialyzed FBS, 0.569 µM | 104 | 95.1 | 84.7
HPLM + 10% dialyzed FBS, 1.71 µM | 97.8 | 92.2 | 36.4
HPLM + 10% dialyzed FBS, 5.12 µM | 61.5 | 44 | 15.7
HPLM + 10% dialyzed FBS, 15.4 µM | 100 | 91.5 | 69.1
HPLM + 10% dialyzed FBS, 46.1 µM | 84.1 | 54.4 | 53.6
RPMI 5 mM glucose + 10% FBS, 0.000781 µM | 79.8 | 91 | 79.7
RPMI 5 mM glucose + 10% FBS, 0.00234 µM | 85.1 | 87.7 | 88.8
RPMI 5 mM glucose + 10% FBS, 0.00702 µM | 85.4 | 85.9 | 94.5
RPMI 5 mM glucose + 10% FBS, 0.0211 µM | 94.8 | 92.2 | 110
RPMI 5 mM glucose + 10% FBS, 0.0632 µM | 83.8 | 89.8 | 82.1
RPMI 5 mM glucose + 10% FBS, 0.19 µM | 78.1 | 88.7 | 87.9
RPMI 5 mM glucose + 10% FBS, 0.569 µM | 80.4 | 80.8 | 79
RPMI 5 mM glucose + 10% FBS, 1.71 µM | 75.2 | 86.4 | 58
RPMI 5 mM glucose + 10% FBS, 5.12 µM | 35.1 | 20.5 | 9.88
RPMI 5 mM glucose + 10% FBS, 15.4 µM | 86.3 | 88.2 | 74
RPMI 5 mM glucose + 10% FBS, 46.1 µM | 85.5 | 73.4 | 21.9
RPMI 5 mM glucose + 10% dialyzed FBS, 0.000781 µM | 84 | 80.8 | 79.6
RPMI 5 mM glucose + 10% dialyzed FBS, 0.00234 µM | 96.7 | 83.2 | 93.5
RPMI 5 mM glucose + 10% dialyzed FBS, 0.00702 µM | 86.2 | 82.6 | 93.5
RPMI 5 mM glucose + 10% dialyzed FBS, 0.0211 µM | 90.7 | 79.7 | 84.9
RPMI 5 mM glucose + 10% dialyzed FBS, 0.0632 µM | 88 | 85.9 | 72.5
RPMI 5 mM glucose + 10% dialyzed FBS, 0.19 µM | 98.6 | 82.3 | 64
RPMI 5 mM glucose + 10% dialyzed FBS, 0.569 µM | 93.6 | 85.4 | 81.8
RPMI 5 mM glucose + 10% dialyzed FBS, 1.71 µM | 85.1 | 81.4 | 17.9
RPMI 5 mM glucose + 10% dialyzed FBS, 5.12 µM | 43.5 | 41.7 | 9.6
RPMI 5 mM glucose + 10% dialyzed FBS, 15.4 µM | 90.7 | 76.8 | 66.4
RPMI 5 mM glucose + 10% dialyzed FBS, 46.1 µM | 87.3 | 53.1 | 39.3

SEM cells [2]
Conditions | AUC of viability dose-response curve
HPLM + 10% dialyzed FBS | 329
RPMI 5 mM glucose + 10% FBS | 345
RPMI 5 mM glucose + 10% dialyzed FBS | 308
